Experimental data reported in patent US20120122843A1, “Compounds and Their Use for Treatment of Amyloid Beta-Related Diseases” (ASTRAZENECA AB, priority 2010, published 2012).
Values belong to the compound of their own block, whether it stands above or below them.

Tests used:
Notch = assay: Release and translocation of Notch intracellular domain into the nucleus, HEK/AENotch cells (NICD immunostaining, ImageXpress); format: cell-based, Human; details: 3 μM Lactacystin, 4-6 h incubation, nucleus/cytosol NICD fluorescence ratio
How it was run: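 HEK cells overexpressing a Notch1-ΔE-myc construct were plated for 15–24 h, then treated 4–6 h with compound (typically up to 25 μM, 0.5% DMSO) plus 3 μM Lactacystin. Fixed cells were immunostained for NICD, and the nuclear/cytosolic fluorescence ratio was imaged. Cytotoxicity was judged by nucleus area or cell number.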

Aβtotal = assay: Total Aβ release from HEK cells stably expressing APPswe (MSD, 6E10 and 4G8 antibodies); format: cell-based; details: Homo sapiens, HEK293, 4-6 h incubation with test compound, total Aβ secreted to cell medium
Description: The level of activity of the compounds on Aβ formation was tested using the following method:
Compounds were diluted in 100% DMSO and stored at […] prior to use. Human Embryonic Kidney (HEK) cell line stably expressing APP with the Swedish mutation (APPswe) were cultured using Dulbecco's Modified Eagles medium (DMEM) supplied with […] glucose, Na-pyruvate and GlutaMAX with 10% FBS, 100 U/ml penicillin-streptomycin (PEST) respectively, 1× non-essential amino acids (NEAA), […] Hepes, 100 μg/ml Zeocine. Cells at about 80% confluence were washed with PBS, detached from culture flasks using 1× Trypsin/EDTA diluted in PBS, re-suspended in cell media and plated in 384-well poly-d-lysine coated cell culture plates at about 10000-15000 cells/well, in 25 μL cell media. Optionally, cryo-preserved cells (frozen and stored at −140° C. in 90% cell media and 10% DMSO) were thawed, washed and plated as above. Next the cells were incubated for 15-24 h at 37° C. and 5% CO2, after which cell medium was changed. Fresh medium containing test compound diluted ×200 from prepared compound plate was added to the cells before further incubation for 4-6 hours at 37° C. and 5% CO2. After incubation with test compound the amount of Aβ peptides, including Aβ42, Aβ40, Aβ39, Aβ38 and Aβ37, as well as total Aβ levels, secreted to cell medium was analyzed using the electrochemiluminescence assay technology from Meso Scale Discovery (MSD), in combination with specific antibodies raised against the different Aβ peptides. Aβ42, Aβ40 and Aβ38 antibodies were purchased from MSD and Aβ37 and Aβ39 were made in house. Total Aβ was measured using a combination of 6E10 and 4G8 anti Aβ antibodies from MSD. Potential cytotoxic effects of the compounds were usually assayed by measuring the ATP content (ViaLight) from cell lysate.

Aβ42 = Aβ42 release from HEK cells stably expressing APPswe (MSD electrochemiluminescence); format: cell-based, Human; details: 4-6 h incubation with test compound, Aβ42 secreted to cell medium
How it was run: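 HEK cells stably expressing APPswe, plated 15–24 h, then given compound in fresh medium (diluted ×200 from compound plate) for 4–6 h at 37 °C. Secreted Aβ in medium measured by MSD electrochemiluminescence; total Aβ via 6E10 plus 4G8 antibodies, Aβ42 via specific antibody. Cytotoxicity checked by ATP content of lysate.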

[1] = Homo sapiens, HEK293, HEK cells expressing APPswe

Compound: COc1nc(Nc2ccc3c(n2)OC(C2CC(F)(F)C2)CN(C)C3)ccc1-c1cnn(C)c1 (single isomer, unassigned) [Example 37, 2-(3,3-Difluorocyclobutyl)-N-(6-methoxy-5-(1-methyl-1H-pyrazol-4-yl)pyridin-2-yl)-4-methyl-2,3,4,5-tetrahydropyrido[3,2-f][1,4]oxazepin-8-amine]
- IC50 (Notch; Homo sapiens): > 25 µM
- IC50 (Aβtotal): > 1 µM
- IC50 (Aβ42; HEK cells expressing APPswe): 0.004 µM

Compound: COc1nc(Nc2ccc3c(n2)OC(CC(F)(F)F)CN(C)C3)ccc1-c1cnn(C)c1 (single isomer, unassigned; (+)) [Example 4, (+)-N-(6-Methoxy-5-(1-methyl-1H-pyrazol-4-yl)pyridin-2-yl)-4-methyl-2-(2,2,2-trifluoroethyl)-2,3,4,5-tetrahydropyrido[3,2-f][1,4]oxazepin-8-amine]
- IC50 (Notch; Homo sapiens): > 25 µM
- IC50 (Aβtotal): 0.512 µM
- IC50 (Aβ42; HEK cells expressing APPswe): 0.009 µM

Compound: COc1nc(Nc2ccc3c(n2)O[C@H](c2ccccc2)CN(C)C3)ccc1-c1cnc(C)o1 [Example 49, (2R)—N-[6-Methoxy-5-(2-methyloxazol-5-yl)-2-pyridyl]-4-methyl-2-phenyl-3,5-dihydro-2H-pyrido[3,2-f][1,4]oxazepin-8-amine]
- IC50 (Notch; Homo sapiens): 2.17 µM
- IC50 (Aβtotal): 5.46 µM
- IC50 (Aβ42; [1]): 0.002 µM

Compound: COc1nc(Nc2ccc3c(n2)OC(CC(CF)CF)CN(C)C3)ccc1-c1cnn(C)c1 (stereo not drawn) [Example 31, [8-(3-Fluoro-2-fluoromethyl-propyl)-6-methyl-5,6,7,8-tetrahydro-9-oxa-1,6-diaza-benzocyclohepten-2-yl]-[6-methoxy-5-(1-methyl-1H-pyrazol-4-yl)-pyridin-2-yl]-amine]
- IC50 (Notch; Homo sapiens): > 7.9 µM
- IC50 (Aβtotal): 9.47 µM
- IC50 (Aβ42; [1]): 0.022 µM

Compound: COc1nc(Nc2ccc3c(n2)OC(CC(F)(F)F)CN(C)C3C)ccc1-c1cnn(C)c1 (single isomer, unassigned) [Example 33, N-(6-Methoxy-5-(1-methyl-1H-pyrazol-4-yl)pyridin-2-yl)-4,5-dimethyl-2-(2,2,2-trifluoroethyl)-2,3,4,5-tetrahydropyrido[3,2-f][1,4]oxazepin-8-amine]
- IC50 (Notch; Homo sapiens): > 25 µM
- IC50 (Aβtotal): > 5 µM
- IC50 (Aβ42; [1]): 0.008 µM

Compound: Cc1ncn(-c2ccc(Nc3ccc4c(n3)OC(c3ccc(Cl)cc3)CN(C)C4)nc2)n1 (stereo not drawn) [Example 24, 2-(4-Chlorophenyl)-4-methyl-N-(5-(3-methyl-1H-1,2,4-triazol-1-yl)pyridin-2-yl)-2,3,4,5-tetrahydropyrido[3,2-f][1,4]oxazepin-8-amine]
- IC50 (Notch; Homo sapiens): > 7.9 µM
- IC50 (Aβ42; [1]): 0.081 µM

Compound: COc1nc(Nc2cc(C)c3c(n2)OC(C2CCCO2)CN(C)C3)ccc1-c1cnn(C)c1 (single isomer, unassigned) [Example 26, N-(6-Methoxy-5-(1-methyl-1H-pyrazol-4-yl)pyridin-2-yl)-4,6-dimethyl-2-(tetrahydrofuran-2-yl)-2,3,4,5-tetrahydropyrido[3,2-f][1,4]oxazepin-8-amine]
- IC50 (Notch): > 7.9 µM
- IC50 (Aβ42; HEK cells expressing APPswe): 0.056 µM

Compound: COc1nc(Nc2ccc3c(n2)O[C@H](c2ccc(F)cn2)CN(C)C3C)ccc1-n1cnc(C)c1 (single isomer, unassigned; (-)) [Example 52]
- IC50 (Notch; Homo sapiens): 7.2 µM
- IC50 (Aβ42; [1]): 0.01 µM

Compound: COc1nc(Nc2ccc3c(n2)OC(c2cc(C)ccn2)CN(C)C3)ccc1-c1cnn(C)c1 (stereo not drawn) [Example 42, N-(6-Methoxy-5-(1-methyl-1H-pyrazol-4-yl)pyridin-2-yl)-4-methyl-2-(4-methylpyridin-2-yl)-2,3,4,5-tetrahydropyrido[3,2-f][1,4]oxazepin-8-amine]
- IC50 (Notch; Homo sapiens): > 25 µM
- IC50 (Aβ42; [1]): 0.046 µM

Continued, in another order:

- IC50 (Aβtotal): 1.85 µM
- IC50 (Aβ42; [1]): 0.013 µM
Compound: COc1nc(Nc2ccc3c(n2)OC(c2nc(C)cs2)CN(C)C3)ccc1-n1cnc(C)c1 (stereo not drawn) [Example 12, N-(6-Methoxy-5-(4-methyl-1H-imidazol-1-yl)pyridin-2-yl)-4-methyl-2-(4-methylthiazol-2-yl)-2,3,4,5-tetrahydropyrido[3,2-f][1,4]oxazepin-8-amine]
- IC50 (Notch; Homo sapiens): > 25 µM

- IC50 (Aβtotal): 8.72 µM
- IC50 (Aβ42; [1]): 0.012 µM
Compound: COc1nc(Nc2ccc3c(n2)OC(CCC(F)(F)F)CN(C)C3)ccc1-c1cnn(C)c1 (stereo not drawn) [Example 27, [6-Methoxy-5-(1-methyl-1H-pyrazol-4-yl)-pyridin-2-yl]-[6-methyl-8-(3,3,3-trifluoro-propyl)-5,6,7,8-tetrahydro-9-oxa-1,6-diaza-benzocyclohepten-2-yl]-amine]
- IC50 (Notch; Homo sapiens): 16.3 µM

- IC50 (Aβtotal): > 5 µM
- IC50 (Aβ42; [1]): 0.007 µM
Compound: COc1nc(Nc2ccc3c(n2)OC(CC(CF)CF)CN(C)C3)ccc1-n1cnc(C)c1 (stereo not drawn) [Example 32, [8-(3-Fluoro-2-fluoromethyl-propyl)-6-methyl-5,6,7,8-tetrahydro-9-oxa-1,6-diaza-benzocyclohepten-2-yl]-[6-methoxy-5-(4-methyl-imidazol-1-yl)-pyridin-2-yl]-amine]
- IC50 (Notch; Homo sapiens): > 7.9 µM

- IC50 (Aβtotal): > 1 µM
- IC50 (Aβ42; [1]): 0.003 µM
Compound: COc1nc(Nc2ccc3c(n2)OC(CCC(F)(F)F)CN(C)C3)ccc1-n1cnc(C)c1 (single isomer, unassigned; (+)) [Example 61, (+)-[6-Methoxy-5-(4-methyl-imidazol-1-yl)-pyridin-2-yl]-[6-methyl-8-(3,3,3-trifluoro-propyl)-5,6,7,8-tetrahydro-9-oxa-1,6-diaza-benzocyclohepten-2-yl]-amine]
- IC50 (Notch; Homo sapiens): > 25 µM

- IC50 (Aβtotal): > 1 µM
- IC50 (Aβ42; [1]): 0.007 µM
Compound: COc1nc(Nc2ccc3c(n2)OC(CCC(F)(F)F)CN(C)C3)ccc1-n1cnc(C)c1 (stereo not drawn) [Example 28, [6-Methoxy-5-(4-methyl-imidazol-1-yl)-pyridin-2-yl]-[6-methyl-8-(3,3,3-trifluoro-propyl)-5,6,7,8-tetrahydro-9-oxa-1,6-diaza-benzocyclohepten-2-yl]-amine]
- IC50 (Notch; Homo sapiens): > 25 µM

- IC50 (Aβ42; HEK cells expressing APPswe): 0.005 µM
Compound: COc1nc(Nc2ccc3c(n2)OC(CCC(F)(F)F)CN(C)C3)ccc1-n1cnc(C)c1 (single isomer, unassigned; (-)) [Example 62, (−)-[6-Methoxy-5-(4-methyl-imidazol-1-yl)-pyridin-2-yl]-[6-methyl-8-(3,3,3-trifluoro-propyl)-5,6,7,8-tetrahydro-9-oxa-1,6-diaza-benzocyclohepten-2-yl]-amine]
- IC50 (Notch): > 25 µM

- IC50 (Aβtotal): > 25 µM
- IC50 (Aβ42; [1]): 0.01 µM
Compound: COc1nc(Nc2ccc3c(n2)OC(CC(CF)CF)CN(C)C3)ccc1-n1cnc(C)c1 (single isomer, unassigned; (+)) [Example 67, (+)-[8-(3-Fluoro-2-fluoromethyl-propyl)-6-methyl-5,6,7,8-tetrahydro-9-oxa-1,6-diaza-benzocyclohepten-2-yl]-[6-methoxy-5-(4-methyl-imidazol-1-yl)-pyridin-2-yl]-amine]
- IC50 (Notch): 6.23 µM

- IC50 (Aβ42; HEK cells expressing APPswe): 0.005 µM
Compound: COc1nc(Nc2ccc3c(n2)OC(CCC(F)(F)F)CN(C)C3)ccc1-c1cnn(C)c1 (single isomer, unassigned; (+)) [Example 57, (+)-N-[6-Methoxy-5-(1-methylpyrazol-4-yl)-2-pyridyl]-4-methyl-2-(3,3,3-trifluoropropyl)-3,5-dihydro-2H-pyrido[3,2-f][1,4]oxazepin-8-amine]
- IC50 (Notch): > 11.5 µM
